Experimental data taken from a melting point compilation (Tetko et al.; mined from patent text by program, amines drawn as free bases though some values may be those of a salt).

Compared with `COc1ccc(C(CC(=O)Nc2cc(C(N)=O)ccc2C(C)(C)C)CC(C)C)c(OC)c1` (stereo not given), `CCCCCC(CC(=O)Nc1cc(C(=O)O)ccc1C(C)(C)C)c1ccc(OC)cc1OC` (stereo not given) is lower in melting point: 194 to 196 °C for the first, 153 to 154 °C for the second.

First: Cc1nc2cccc(OCC(C)(C)NC(=O)C3CCC3)c2c(N)c1C(=O)O
Second: CCOC(=O)c1cnc(Nc2ccccc2OCC(C)C)[nH]c1=O
The melting point of the first is higher: 186 to 190 °C for the first, 175 to 177 °C for the second.

First: OC(CNC1=NCCN1)c1ccc(Cl)cc1 (stereo not given)
Second: C=CCON(C1=NCCN1)c1c(F)cccc1Br
The melting point of the first is higher: 156 to 158 °C for the first, 141 °C for the second.

Compared with `O=[N+]([O-])c1cnc2cc(Cl)ccc2c1Nc1ccc(F)cc1`, `O=[N+]([O-])c1ccc(Cl)cc1OCC=Cc1ccccc1` is lower in melting point: 198 to 200 °C for the first, 74.5 to 75.5 °C for the second.

Compared with `CC(C)(C)c1cccc(C[C@H](N)[C@H](O)c2cccc(Cl)c2)c1` (racemic), `NC(=O)CNC(=O)c1cccc(-c2cccc3sc(Cc4cccc(C(F)(F)F)c4)nc23)c1` is higher in melting point: 102 to 103 °C for the first, 130 to 131 °C for the second.

First: CC1(C)OC(=S)Nc2ccc(-c3cccc([N+](=O)[O-])c3)cc21
Second: O=C(O)c1cc(SCc2ccccc2)c(-c2ccccc2)c([N+](=O)[O-])c1
The melting point of the first is higher: 224 to 226 °C for the first, 188 to 189 °C for the second.

Compared with `CCOC(=O)CN(C)CC=CC(=O)Nc1ccc2ncnc(Nc3cccc(Br)c3)c2c1`, `CCOC(=O)CCc1cn(-c2ccccc2)nc1OCc1ccc(OCc2nc(-c3ccco3)oc2C)c(OC)c1` is lower in melting point: 182 to 183 °C for the first, 97 to 98 °C for the second.

Compared with `OC(Cn1ccnc1)(c1ccc(Cl)cc1)c1ccc(Cl)cc1`, `O=C(Nc1ccc(C(F)(F)F)cc1)C1=NN(c2ccc(Cl)cc2)C(c2ccco2)C1` (stereo not given) is lower in melting point: 208 to 210 °C for the first, 167 to 171 °C for the second.

First: CCCCCCCCCCCCc1cc2c(s1)NC(=O)CN=C2c1ccccc1Cl
Second: CCCCCCCCCCCCCCCCCCOc1cc(OCCCOc2ccccc2)cc(C(=O)OCc2ccccc2)c1
The melting point of the first is higher: 119 to 121 °C for the first, 46 to 47 °C for the second.

Compared with `COc1ccc(OCCOc2ccc(C(=O)C(=O)O)cc2)cc1OC`, `COC(=O)C1=C(C)N(CCCc2ccccc2)C(C)=C(C(=O)OC)C1c1ccc(OC)c(OC)c1` is lower in melting point: 140 to 141 °C for the first, 97 to 98 °C for the second.

Compared with `COc1ccc2c(c1)C(=O)Cc1c(Cl)cccc1S2`, `Cn1c2ccc(Cl)cc2c2c(CBr)nn(-c3ccccc3)c(=O)c21` is higher in melting point: 117 to 120 °C for the first, 253 to 254 °C for the second.

First: CCCC[C@]1(CC)CS(=O)(=O)c2cc(OC)c(Br)cc2[C@@H](c2ccccc2)N1
Second: CC(C)c1cccc(C(C)C)c1NC(=O)NC1CCCCC1c1ccccc1 (stereo not given)
The melting point of the first is lower: 132 to 134 °C for the first, 225 to 226 °C for the second.

First: N#Cc1c(F)c(F)c(O)c(F)c1F
Second: CCOCn1c(C(F)(F)F)c(C#N)c2ccc(Cl)c(Cl)c21
The melting point of the first is higher: 128 to 129 °C for the first, 122 to 127 °C for the second.

First: O=C(O)c1cc(-n2c(-c3ccc(O)cc3)cc3c2CCCC3)ccc1O
Second: Nc1c(-c2ccc(Cl)cc2)nc2ccccc2c1C(=O)O
The melting point of the first is lower: 214 to 217 °C for the first, 243 to 244 °C for the second.

Compared with `CCOC(=O)C(NC(=O)CCNC(=O)CO)C(=O)OCC`, `CCOC(=O)c1nc2sc(CC)c([N+](=O)[O-])c2c(=O)[nH]1` is higher in melting point: 94.5 to 96 °C for the first, 200 to 212 °C for the second.

First: CC[C@@H](c1ccc(C(F)(F)F)cc1)N(Cc1ccc(C(=O)OC)cc1)S(=O)(=O)c1ccc(Cl)cc1
Second: O=S(=O)(Nc1ccc2c(OCc3ccc(-c4ccccc4)cc3F)cccc2c1)C(F)(F)F
The melting point of the first is lower: 120 to 121 °C for the first, 123 to 125 °C for the second.

First: C[C@@H](n1cnc2cc(Cl)ccc2c1=O)[C@](O)(Cn1cncn1)c1ccc(Cl)cc1Cl
Second: Cc1cncn1CC#Cc1cc(CN2CCOCC2)cc2c(=O)c(C(=O)NCc3ccc(Cl)cc3)cn(C)c12
The melting point of the first is lower: 144 to 146 °C for the first, 149 to 152 °C for the second.

First: OCC(CC(F)(F)F)Nc1nc(-c2ccc(Br)cc2)cs1 (stereo not given)
Second: Cc1ccc2c(c1)C=C(C(=O)O)C(C(F)(F)F)S2 (stereo not given)
The melting point of the first is lower: 120 to 121 °C for the first, 181 to 184 °C for the second.

First: CCOP(=O)(OCC)c1cc2cc(N)c(C(F)(F)F)cc2[nH]c1=O
Second: CCCCCS(=O)(=O)NC(=O)OCCCc1ccc(OCCOC)cc1Oc1ncc(C(F)(F)F)cc1Cl
The melting point of the first is higher: 240 to 244 °C for the first, 97.5 to 99 °C for the second.

Compared with `CC1(C)Oc2ccc(Br)cc2C(Oc2ccc(O)nn2)C1(C)O` (stereo not given), `COc1ccc(-c2oncc2CCCO)cc1OC` is lower in melting point: 242 °C for the first, 55 to 56 °C for the second.

First: CSc1ccc(C(=N)Nc2ccc(C)cc2)cc1
Second: Cc1ccc(COc2ncc(F)c(N)n2)cc1
The melting point of the first is higher: 143 to 145 °C for the first, 111 to 112 °C for the second.

First: O=c1cc(-c2cccc(Cl)c2)oc2ccc(OCCCCCCN3CCC(O)CC3)cc12
Second: O=c1[nH]c2ccccc2c(=O)n1CCN1CCC(c2c[nH]c3cc(F)ccc23)CC1
The melting point of the first is lower: 120 to 121 °C for the first, 301 °C for the second.

First: Cc1c(Oc2nccs2)ccc(C(=O)O)c1Cl
Second: Cc1ccc(Oc2ccc(-c3cccs3)cc2O)c(O)c1
The melting point of the first is higher: 150 to 152 °C for the first, 91 to 92 °C for the second.

First: CC(=O)CCc1ccc(-c2ccccc2)cc1
Second: N#CCCn1nc(-c2ccc(OCc3ccccc3)cc2)oc1=O
The melting point of the first is lower: 76 to 77 °C for the first, 136 °C for the second.

First: CCOC(=O)c1cnc2scnn2c1=O
Second: CCOC(=O)Cc1cccc(NC=O)n1
The melting point of the first is higher: 228 to 230 °C for the first, 35 to 38 °C for the second.

First: CC(=O)OCc1nc([N+](=O)[O-])cn1C
Second: COC(=O)C1=Cc2cc([N+](=O)[O-])ccc2N(C)CCC1
The melting point of the first is lower: 93 to 95 °C for the first, 127 to 129 °C for the second.

First: C#Cc1ccc2c(c1)C(c1ccccc1)=NCc1c(C(=O)NC)ncn1-2
Second: CCn1nc(-c2ccccc2)c(C(C)=O)c(Nc2ccc(O)c3ncccc23)c1=O
The melting point of the first is lower: 237 to 238 °C for the first, 262 to 263 °C for the second.

First: Cc1ccccc1-c1c(NC(=O)Nc2ccc(F)cc2F)c(=O)n(C)c2ccc(Cl)cc12
Second: O=C1c2ccccc2-c2c1c1ccccc1c(=O)n2CCCCCNS(=O)(=O)c1ccc(Br)cc1
The melting point of the first is lower: 163 to 165 °C for the first, 169 to 171 °C for the second.

First: CC(C)S(=O)(=O)c1nc(OS(C)(=O)=O)cs1
Second: CCS(=O)(=O)Nc1c(C)cccc1C
The melting point of the first is lower: 56.5 to 58.5 °C for the first, 90 °C for the second.

Compared with `CC(C)C1Cc2cnc3c(c2C1(O)CC#N)CCO3` (stereo not given), `C=C(CN(C)C)C(O)c1ncc2c(c1O)COC2C1CCCCC1` (stereo not given) is higher in melting point: 169 to 170 °C for the first, 180 to 184 °C for the second.

First: Fc1ccccc1-c1c(OCc2ncnn2CC(F)F)nn2c(-c3ccccc3F)nncc12
Second: O=C(Nc1ccccn1)c1c(OC(F)F)ccc2oc3ccc(C(F)(F)F)cc3c12
The melting point of the first is higher: 179 to 180 °C for the first, 169 to 170 °C for the second.

First: NNc1ccc(C(F)(F)F)c(Cl)c1Cl
Second: N#Cc1nn(-c2c(Cl)cc(C(F)(F)F)cc2Cl)c(N)c1-c1cccc(F)c1
The melting point of the first is lower: 79 to 80 °C for the first, 164 °C for the second.

Compared with `COc1ccc(OC)c2[nH]ccc12`, `COc1ccc2c(c1)COCc1cc(OC)c(OC)c(OC)c1-2` is lower in melting point: 193 to 195 °C for the first, 151 to 153 °C for the second.

First: CSc1nnc(CNc2c(C)csc2C)n1C
Second: COc1ccc2c(c1C)OC(C)(C)CC2=O
The melting point of the first is lower: 92 to 96 °C for the first, 105 to 107 °C for the second.

Compared with `COc1cccc2c1C(C)N1CC(=O)NC1=N2` (stereo not given), `O=C1c2ccccc2SC12CC2` is lower in melting point: 250 °C for the first, 70 °C for the second.

First: Fc1cc(Cl)c(OCC2=CCCOC2)cc1-n1nc2c(c1Cl)CCCC2
Second: Cc1nc2c(N)nc3c(c2n1CCOCCCc1cccnc1)CCCC3
The melting point of the first is lower: 90 to 92 °C for the first, 140 to 141 °C for the second.

First: COc1ccc(OCC2SCCN2C(=O)CCl)cc1 (stereo not given)
Second: COC(=O)C=Cc1ccc(C(=O)O)s1
The melting point of the first is lower: 51 to 53 °C for the first, 156 °C for the second.

Compared with `CCn1c2c(c3ccccc31)S(=O)(=O)N(C)C(C(=O)Nc1ccccn1)=C2O`, `Nc1ncc2ncn(CCC(CO)COC(=O)c3ccccc3)c2n1` (stereo not given) is lower in melting point: 232 °C for the first, 116 to 118 °C for the second.

First: COP(=O)(CC1(O)O[C@H](COCc2ccccc2)[C@@H](OCc2ccccc2)[C@H](OCc2ccccc2)[C@H]1OCc1ccccc1)OC (stereo not given in full)
Second: O=C(Nc1nc(Cc2ccccc2)c(C(=O)c2sc(NC(=O)Oc3ccccc3)nc2Cc2ccccc2)s1)Oc1ccccc1
The melting point of the first is lower: 112 to 113 °C for the first, over 285 °C for the second.

First: O=C(CCCCC(=O)Oc1cccc(O)c1O)Oc1cccc(O)c1O
Second: O=C(O)CCCCCc1cnc2ccccc2c1
The melting point of the first is lower: 110 to 111 °C for the first, 129 to 131 °C for the second.

First: CC(C)c1cccc(C(C)C)c1NC(=O)N(Cc1ccccc1)CC(c1ccccc1)c1ccccc1
Second: Nc1cc(OCc2ccccc2)ccc1NC(=O)c1ccc(OCc2ccccc2)c(C23CC4CC(CC(C4)C2)C3)c1
The melting point of the first is lower: 153 to 155 °C for the first, 166 to 170 °C for the second.

First: O=C(NC(=S)NCCSCc1c[nH]cn1)c1ccccc1
Second: Cc1cc(CSCCNC(=C[N+](=O)[O-])NCCc2cccc(O)c2)sc1CN(C)C
The melting point of the first is higher: 126 to 128 °C for the first, 114 to 115 °C for the second.

First: O=C(O)c1cc2c(c(C(=O)O)c1)NCCCC2
Second: CCNCC1(O)CCN(c2cc3c(cc2F)c(=O)c(C(=O)O)cn3C2CC2)C1 (stereo not given)
The melting point of the first is higher: 287 to 288 °C for the first, 202 to 207 °C for the second.

First: CCNCC1CCN(c2c(F)cc3c(=O)c(C(=O)O)cn(C4CC4)c3c2C(F)(F)F)C1 (stereo not given)
Second: Cc1c(N2CC[C@H]([C@@H](C)NC(=O)OC(C)(C)C)C2)c(F)cc2c(=O)n(N)c(=O)n(C3CC3)c12
The melting point of the first is higher: 239 to 241 °C for the first, 84 to 86 °C for the second.

First: COc1cccc([C@H]2O[C@H](CC(=O)Nc3c(C)c(C)c4oc(C(=O)O)cc4c3C)C(=O)N(CC(C)(C)CO)c3ccc(Cl)cc32)c1OC
Second: COc1cc2c(cc1Nc1ncc(Cl)c(Nc3c(OC)ccc4c3CN(S(C)(=O)=O)CC(=O)N4)n1)CCN(CC(=O)N(C)C)CC2
The melting point of the first is higher: 246 to 248 °C for the first, 118 to 121 °C for the second.

Compared with `CN(C(=O)c1ccc2nonc2c1)C1CCS(=O)(=O)CC1`, `O=C1CCC=C2N=CC=NC=C12` is lower in melting point: 238 to 239 °C for the first, 141 to 146 °C for the second.

Compared with `CNc1nc(Cl)ccc1[N+](=O)[O-]`, `Cc1nc(N2CCc3ccccc3CC2)c(C#N)c(=O)n1C(F)F` is higher in melting point: 114 °C for the first, 143 °C for the second.

First: O=S(=O)(O)CCCCCCN1CCN(Cc2ccccc2)CC1
Second: O=C(OC(=O)c1ccccc1S(=O)(=O)O)c1ccccc1S(=O)(=O)O
The melting point of the first is higher: 228 to 230 °C for the first, 126 to 129 °C for the second.

First: Nc1ncc(Sc2ccc(O)cc2)s1
Second: NC(=S)C1(c2ccccn2)SCCCS1
The melting point of the first is lower: 187 to 188 °C for the first, 214 °C for the second.

Compared with `Cc1cc(C)c(C(=O)P(=O)(C(=O)c2c(C)cc(C)cc2C)c2ccccc2)c(C)c1`, `COc1ccc(N(c2ccc(C=Cc3ccc4ccc5cccc6ccc3c4c56)cc2)c2ccc(OC)cc2)cc1` is higher in melting point: 130 to 131 °C for the first, 160 °C for the second.
